We go through four compounds from patent US6680323B2, “Dihydropyrimidines and uses thereof” (Synaptic Pharmaceutical Corporation, priority 1998, dated 2004).

In data set [1] the target is T1, human α2c receptor (Homo sapiens, UniProt P18825).
T1 construct: expressed in transfected cells
T1 sequence (P18825 1-462): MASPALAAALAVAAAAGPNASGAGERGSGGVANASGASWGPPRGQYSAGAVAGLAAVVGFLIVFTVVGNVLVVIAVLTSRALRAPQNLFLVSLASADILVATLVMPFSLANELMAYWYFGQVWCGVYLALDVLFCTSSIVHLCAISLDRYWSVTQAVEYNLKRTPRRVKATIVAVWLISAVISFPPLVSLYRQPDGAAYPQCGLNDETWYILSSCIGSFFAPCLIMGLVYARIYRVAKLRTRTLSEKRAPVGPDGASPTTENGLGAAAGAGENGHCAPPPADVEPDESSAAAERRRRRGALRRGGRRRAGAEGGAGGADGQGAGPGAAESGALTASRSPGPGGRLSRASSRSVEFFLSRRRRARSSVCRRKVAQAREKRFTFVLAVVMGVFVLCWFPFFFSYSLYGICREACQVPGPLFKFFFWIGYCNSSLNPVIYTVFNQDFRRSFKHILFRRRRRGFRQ
In words: Competition binding ([3H]rauwolscine) at cloned human α2c receptor. To be noted: transfected LM(tk−) cells, [3H]rauwolscine 0.5 nM; read-out: Binding affinity hα2c. An excerpt: (§1) α2 Human Adrenergic Receptors
(§2) To determine the potency of α1 antagonists at the α2 receptors, LM(tk−) cell lines stably transfected with the genes encoding the α2a, α2b, and α2c receptors were used. The cell line expressing the α2a receptor is designated L-α2A, and was deposited on Nov. 6, 1992 under ATCC Accession No. CRL 11180. The cell line expressing the α2b receptor is designated L-NGC-α2B, and was deposited on Oct. 25, 1989 under ATCC Accession No. CRL10275. The cell line expressing the α2c receptor is designated L-α2C, and was deposited on Nov. 6, 1992 under ATCC Accession No. CRL-11181. All the cell lines were deposited with the American Type Culture Collection, 12301 Parklawn Drive, Rockville, Md. 20852, U.S.A. under the provisions of the Budapest Treaty for the International Recognition of the Deposit of Microorganisms for the Purposes of Patent Procedure. Cell lysates were prepared as described above (see Radioligand Binding Assays), and suspended in 25 mM glycylglycine buffer (pH 7.6 at room temperature). Equilibrium competition binding assay were performed using [3H]rauwolscine (0.5 nM), and nonspecific binding was determined by incubation with 10 μM phentolamine. The bound radioligand was separated by filtration through GF/B filters using a cell harvester.

The target of data set [2] is T2, human α1b receptor (Homo sapiens, UniProt P35368).
T2 construct: The entire coding region of α1b (1563 bp); expressed in transfected cells
T2 sequence (P35368 1-520): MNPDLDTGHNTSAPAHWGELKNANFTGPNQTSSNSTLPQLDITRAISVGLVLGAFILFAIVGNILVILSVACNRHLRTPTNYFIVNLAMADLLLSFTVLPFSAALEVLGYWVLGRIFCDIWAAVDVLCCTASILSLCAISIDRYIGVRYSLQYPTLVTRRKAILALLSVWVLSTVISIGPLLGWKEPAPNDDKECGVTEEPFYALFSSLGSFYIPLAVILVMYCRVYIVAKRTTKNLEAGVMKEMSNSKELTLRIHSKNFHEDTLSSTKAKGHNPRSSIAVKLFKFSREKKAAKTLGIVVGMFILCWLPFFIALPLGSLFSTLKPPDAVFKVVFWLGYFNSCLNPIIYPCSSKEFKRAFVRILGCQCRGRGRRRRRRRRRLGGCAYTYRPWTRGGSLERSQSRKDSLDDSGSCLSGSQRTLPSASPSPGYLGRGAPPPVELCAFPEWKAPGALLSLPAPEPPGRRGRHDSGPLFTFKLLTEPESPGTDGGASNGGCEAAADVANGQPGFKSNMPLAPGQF
Put plainly: Radioligand binding ([3H]prazosin) at cloned human α1b receptor. The conditions noted are these: membranes of transfected LM(tk−) cells, [3H]prazosin 0.5 nM; read-out: Binding affinity hα1b. Here is the method: The activity of compounds at the different human receptors was determined in vitro using cultured cell lines that selectively express the receptor of interest. These cell lines were prepared by transfecting the cloned cDNA or cloned genomic DNA or constructs containing both genomic DNA and cDNA encoding the human α-adrenergic receptors as follows:
α1b Human Adrenergic Receptor
The entire coding region of α1b (1563 bp), including 200 base pairs and 5′ untranslated sequence (5′ UT) and 600 bp of 3′ untranslated sequence (3′ UT), was cloned into the EcoRI site of pCEXV-3 eukaryotic expression vector.
The construct involved ligating the full-length containing EcoRI brainstem cDNA fragment from λ ZapII into the expression vector. Stable cell lines were selected as described above. The cell line used herein was designated L-α1B and was deposited with the American Type Culture Collection, 12301 Parklawn Drive, Rockville, Md. 20852, U.S.A. under the provisions of the Budapest Treaty for the International Recognition of the Deposit of Microorganisms for the Purposes of Patent Procedure. The cell line L-α1B was accorded ATCC Accession No. CR 11139, on Sep. 29, 1992.
Radioligand Binding Assays for α1 Receptors
Transfected cells from culture flasks were scraped into 5 ml of 5 mM Tris-HCl, 5 mM EDTA, pH 7.5, and lysed by sonication. The cell lysates were centrifuged at 1000 rpm for 5 min at 4° C., and the supernatant was centrifuged at 30,000×g for 20 min at 4° C. The pellet was suspended in 50 mM Tris-HCl, 1 mM MgCl2, and 0.1% ascorbic acid at pH 7.5. Binding of the α1 antagonist [^3H]prazosin (0.5 nM, specific activity 76.2 Ci/mmol) to membrane preparations of LM(tk−) cells was done in a final volume of 0.25 ml and incubated at 37° C. for 20 min. Nonspecific binding was determined in the presence of 10 μM phentolamine. The reaction was stopped by filtration through GF/B filters using a cell harvester. Inhibition experiments, routinely consisting of 7 concentrations of the tested compounds, were analyzed using a non-linear regression curve-fitting computer program to obtain Ki values.

The target in data set [3] is T3, human α2a receptor (Homo sapiens, UniProt P08913).
T3 construct: expressed in transfected cells
T3 sequence (P08913 1-465): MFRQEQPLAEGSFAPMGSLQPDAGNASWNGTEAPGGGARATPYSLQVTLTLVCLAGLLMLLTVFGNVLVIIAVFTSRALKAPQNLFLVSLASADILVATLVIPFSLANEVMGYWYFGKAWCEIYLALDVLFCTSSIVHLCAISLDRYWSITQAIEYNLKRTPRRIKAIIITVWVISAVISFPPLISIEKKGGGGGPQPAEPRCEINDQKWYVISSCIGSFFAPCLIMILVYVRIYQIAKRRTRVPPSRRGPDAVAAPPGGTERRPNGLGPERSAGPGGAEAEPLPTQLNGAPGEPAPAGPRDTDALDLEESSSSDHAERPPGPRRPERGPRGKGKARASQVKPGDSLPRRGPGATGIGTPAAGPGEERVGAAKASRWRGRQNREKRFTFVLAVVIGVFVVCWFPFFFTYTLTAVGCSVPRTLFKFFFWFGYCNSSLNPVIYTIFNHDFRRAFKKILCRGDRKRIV
In words: Competition binding ([3H]rauwolscine) at cloned human α2a receptor. To be noted: transfected LM(tk−) cells, [3H]rauwolscine 0.5 nM; read-out: Binding affinity hα2a.
Excerpt: as §1, §2

In data set [4] the target is T4, human α2b receptor (Homo sapiens, UniProt P18089).
T4 construct: expressed in transfected cells
T4 sequence (P18089 1-450): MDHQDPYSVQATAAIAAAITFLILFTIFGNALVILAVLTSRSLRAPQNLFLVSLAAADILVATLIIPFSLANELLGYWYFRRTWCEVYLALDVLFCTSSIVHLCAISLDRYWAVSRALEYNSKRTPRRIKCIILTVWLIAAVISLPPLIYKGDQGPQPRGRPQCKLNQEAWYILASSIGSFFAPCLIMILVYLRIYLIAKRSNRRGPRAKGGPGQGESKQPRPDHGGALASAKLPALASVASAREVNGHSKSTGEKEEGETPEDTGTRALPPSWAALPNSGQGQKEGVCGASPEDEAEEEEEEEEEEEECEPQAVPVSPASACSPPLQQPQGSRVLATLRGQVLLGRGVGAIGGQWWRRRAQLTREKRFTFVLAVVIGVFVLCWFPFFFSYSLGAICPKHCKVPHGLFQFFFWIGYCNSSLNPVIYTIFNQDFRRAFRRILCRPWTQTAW
In words: Competition binding ([3H]rauwolscine) at cloned human α2b receptor. To be noted: transfected LM(tk−) cells, [3H]rauwolscine 0.5 nM; read-out: Binding affinity hα2b.
Excerpt: as §1, §2

Structures can show the parent of a compound that is named as a salt.

In general, melting point refers to the temperature, or range, at which the solid turns liquid.

For the compound `COCC1=C(C(=O)OC)[C@H](c2ccc(F)c(F)c2)N(C(=O)NCCC[n+]2ccc(-c3ccccn3)cc2)C(=O)N1` (as salt: chloride) [Compound 3, 4-(2-Pyridyl)-1-{3-[5-carboxymethyl-4-methoxymethyl-2-oxo-6(S)-(3,4-difluorphenyl)-1,2,3,6-tetrahydropyrimidin-1-yl]carboxyaminopropyl}pyridinium chloride], the melting point was 60 to 85 °C.

In turn, `O=C1OCC2=C1C(c1ccc(F)c(F)c1)N(C(=O)NCCCN1CCC(c3ccccn3)CC1)C(=O)N2` (single isomer, unassigned; (+)) (as salt: hydrochloride) [Compound 8, (+)-1-3-{[4-(3,4-Difluorophenyl)-2,5-dioxo-1,2,5,7-tetrahydro-4H-furo[3,4-d]-pyrimidine-3-carbonyl]amino}-propyl-4-(2-pyridyl)-piperidine] had a melting point of 90 to 95 °C.

For the compound `COCC1=C(CC(=O)O)C(c2ccc(F)c(F)c2)N(C(=O)NCCC[N+]2([O-])CCC(c3ccccn3)CC2)C(=O)N1` (single isomer, unassigned; (+)) [Compound 4, (+)-4-(2-Pyridyl)-1-{3-[5-carboxymethyl-4-methoxymethyl-2-oxo-6-(3,4-difluorphenyl)-1,2,3,6-tetrahydropyrimidin-1-ylcarbonylamino]propyl}piperidine-1-oxide], the Ki turned out to be 8 µM in data set [1], 1.35 µM in data set [2], 22 µM in data set [3] and 17 µM in data set [4].

For the compound `COC(=O)C1=C(c2ccc(F)c(F)c2)N(C(=O)NCCCN2CCC(c3ccccn3)CC2)C(=O)NC1C(=O)O` (single isomer, unassigned; (+)) [Compound 6, (+)-2-Oxo-3-{N-[4-(2-pyridyl)piperidin-1-yl]propyl}carboxamido-4-(3,4-difluorophenyl)-5-methoxycarbonyl-6-carboxy-1,2,3,6-tetrahydropyrimidine], the Ki was over 50 µM in data set [1], over 2 µM in data set [2], over 50 µM in data set [3] and 37.6 µM in data set [4].
